Tests used:
Assay type in all cases: binding
[1] = biological target: T1, SMO (Homo sapiens, UniProt Q99835); assay: NanoBRET screen HiBiT-SMO in HEK293
T1 construct: purchased Promega (in-house HiBiT-GPCR construct library, NanoBRET)
Method in brief: (§1)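 Tracer binding scored as fold response: BRET with tracer alone divided by BRET with 20 μM competing parent compound, cutoff 1.5. Tracers at 1 μM and 0.1 μM, 1.5 h at RT, on HEK293 transiently expressing HiBiT-tagged receptors at low level; complementation with purified LgBiT and furimazine, luminescence at 450 and 600 nm.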

[2] = biological target: T2, CCR2 (Homo sapiens, UniProt P41597); assay: NanoBRET screen HiBiT-CCR2 in HEK293
T2 construct: purchased Promega (in-house HiBiT-GPCR construct library, NanoBRET)
Method in brief: as §1

[3] = biological target: T3, CNR1 (Homo sapiens, UniProt P21554); assay: NanoBRET screen HiBiT-CNR1 in HEK293
T3 construct: purchased Promega (in-house HiBiT-GPCR construct library, NanoBRET)
Method in brief: as §1

[4] = biological target: T4, RXFP3 (Homo sapiens, UniProt Q9NSD7); assay: NanoBRET screen HiBiT-RXFP3 in HEK293
T4 construct: purchased Promega (in-house HiBiT-GPCR construct library, NanoBRET)
T4 sequence (Q9NSD7 1-469): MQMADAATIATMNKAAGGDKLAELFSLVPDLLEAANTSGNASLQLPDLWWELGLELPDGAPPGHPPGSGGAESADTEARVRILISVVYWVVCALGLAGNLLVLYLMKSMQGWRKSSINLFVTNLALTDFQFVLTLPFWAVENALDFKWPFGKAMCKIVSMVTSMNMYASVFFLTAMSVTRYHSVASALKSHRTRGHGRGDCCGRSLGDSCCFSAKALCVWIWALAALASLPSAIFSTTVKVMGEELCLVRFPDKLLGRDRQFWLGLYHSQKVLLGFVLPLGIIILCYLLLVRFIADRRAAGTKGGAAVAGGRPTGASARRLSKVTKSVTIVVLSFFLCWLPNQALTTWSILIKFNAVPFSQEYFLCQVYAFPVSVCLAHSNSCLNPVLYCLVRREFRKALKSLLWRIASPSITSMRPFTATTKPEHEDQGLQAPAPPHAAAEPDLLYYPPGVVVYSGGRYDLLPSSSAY
Method in brief: as §1

[5] = biological target: T5, SSTR1 (Homo sapiens, UniProt P30872); assay: NanoBRET screen HiBiT-SSTR1 in HEK293
T5 construct: purchased Promega (in-house HiBiT-GPCR construct library, NanoBRET)
Method in brief: as §1

[6] = biological target: T6, PTAFR (Homo sapiens, UniProt P25105); assay: NanoBRET screen HiBiT-PTAFR in HEK293
T6 construct: purchased Promega (in-house HiBiT-GPCR construct library, NanoBRET)
Method in brief: as §1

[7] = biological target: T7, PTGDR2 (Homo sapiens, UniProt Q9Y5Y4); assay: NanoBRET screen HiBiT-PTGDR2 in HEK293
T7 construct: purchased Promega (in-house HiBiT-GPCR construct library, NanoBRET)
T7 sequence (Q9Y5Y4 1-395): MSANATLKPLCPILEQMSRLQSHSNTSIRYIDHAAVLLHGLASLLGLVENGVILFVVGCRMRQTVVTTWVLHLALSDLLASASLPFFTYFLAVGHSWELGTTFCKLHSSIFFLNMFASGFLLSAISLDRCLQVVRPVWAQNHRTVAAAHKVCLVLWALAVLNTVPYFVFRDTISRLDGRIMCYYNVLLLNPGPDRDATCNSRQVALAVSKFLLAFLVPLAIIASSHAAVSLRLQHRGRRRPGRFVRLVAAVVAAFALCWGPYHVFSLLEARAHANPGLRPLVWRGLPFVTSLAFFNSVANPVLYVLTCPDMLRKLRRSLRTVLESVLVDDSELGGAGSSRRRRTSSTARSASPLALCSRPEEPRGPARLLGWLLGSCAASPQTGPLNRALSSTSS
Method in brief: as §1

[8] = biological target: T8, HTR1D (Homo sapiens, UniProt P28221); assay: NanoBRET screen HiBiT-HTR1D in HEK293
T8 construct: purchased Promega (in-house HiBiT-GPCR construct library, NanoBRET)
Method in brief: as §1

[9] = biological target: T9, DRD5 (Homo sapiens, UniProt P21918); assay: NanoBRET screen HiBiT-DRD5 in HEK293
T9 construct: purchased Promega (in-house HiBiT-GPCR construct library, NanoBRET)
Method in brief: as §1

T8 sequence (P28221 whole entry): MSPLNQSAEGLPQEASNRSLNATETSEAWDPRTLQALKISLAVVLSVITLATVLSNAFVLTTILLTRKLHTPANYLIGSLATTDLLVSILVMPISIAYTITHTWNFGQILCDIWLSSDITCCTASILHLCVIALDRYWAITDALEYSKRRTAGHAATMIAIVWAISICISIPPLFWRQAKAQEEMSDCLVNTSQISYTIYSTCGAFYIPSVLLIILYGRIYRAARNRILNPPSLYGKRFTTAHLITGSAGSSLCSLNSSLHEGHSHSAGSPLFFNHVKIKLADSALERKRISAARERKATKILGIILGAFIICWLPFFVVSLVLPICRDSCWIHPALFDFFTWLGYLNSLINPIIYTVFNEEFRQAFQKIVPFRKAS
T5 sequence (P30872 whole entry): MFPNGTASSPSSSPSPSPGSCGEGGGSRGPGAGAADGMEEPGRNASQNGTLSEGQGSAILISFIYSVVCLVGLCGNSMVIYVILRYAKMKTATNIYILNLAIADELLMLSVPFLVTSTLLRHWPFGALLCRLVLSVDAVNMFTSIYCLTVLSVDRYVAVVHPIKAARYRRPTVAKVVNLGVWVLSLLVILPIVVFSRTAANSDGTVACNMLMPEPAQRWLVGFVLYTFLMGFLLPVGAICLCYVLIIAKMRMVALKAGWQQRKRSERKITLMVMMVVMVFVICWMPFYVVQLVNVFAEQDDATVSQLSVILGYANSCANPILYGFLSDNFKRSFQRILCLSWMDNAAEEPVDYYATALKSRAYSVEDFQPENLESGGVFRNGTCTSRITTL
T1 sequence (Q99835 28-787): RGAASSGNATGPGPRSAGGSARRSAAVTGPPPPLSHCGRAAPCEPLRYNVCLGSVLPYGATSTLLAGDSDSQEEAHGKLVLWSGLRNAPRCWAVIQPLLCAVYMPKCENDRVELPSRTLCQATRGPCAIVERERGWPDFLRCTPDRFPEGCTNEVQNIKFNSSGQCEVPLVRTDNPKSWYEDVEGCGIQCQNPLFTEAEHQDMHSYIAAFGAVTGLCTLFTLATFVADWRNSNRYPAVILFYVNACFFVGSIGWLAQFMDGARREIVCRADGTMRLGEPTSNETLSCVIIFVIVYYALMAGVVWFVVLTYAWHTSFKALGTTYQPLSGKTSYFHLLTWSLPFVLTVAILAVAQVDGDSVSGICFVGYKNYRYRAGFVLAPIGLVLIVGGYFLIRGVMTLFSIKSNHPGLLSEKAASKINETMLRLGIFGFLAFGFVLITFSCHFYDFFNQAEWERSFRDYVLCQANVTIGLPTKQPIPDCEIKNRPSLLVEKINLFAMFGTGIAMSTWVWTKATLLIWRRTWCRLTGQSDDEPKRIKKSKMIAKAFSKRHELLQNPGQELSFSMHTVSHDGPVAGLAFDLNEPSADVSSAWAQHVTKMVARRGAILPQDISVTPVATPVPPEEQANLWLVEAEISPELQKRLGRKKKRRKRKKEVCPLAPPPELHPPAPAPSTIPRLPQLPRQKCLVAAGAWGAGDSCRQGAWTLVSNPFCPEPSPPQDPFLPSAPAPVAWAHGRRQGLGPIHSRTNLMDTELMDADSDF
T9 sequence (P21918 whole entry): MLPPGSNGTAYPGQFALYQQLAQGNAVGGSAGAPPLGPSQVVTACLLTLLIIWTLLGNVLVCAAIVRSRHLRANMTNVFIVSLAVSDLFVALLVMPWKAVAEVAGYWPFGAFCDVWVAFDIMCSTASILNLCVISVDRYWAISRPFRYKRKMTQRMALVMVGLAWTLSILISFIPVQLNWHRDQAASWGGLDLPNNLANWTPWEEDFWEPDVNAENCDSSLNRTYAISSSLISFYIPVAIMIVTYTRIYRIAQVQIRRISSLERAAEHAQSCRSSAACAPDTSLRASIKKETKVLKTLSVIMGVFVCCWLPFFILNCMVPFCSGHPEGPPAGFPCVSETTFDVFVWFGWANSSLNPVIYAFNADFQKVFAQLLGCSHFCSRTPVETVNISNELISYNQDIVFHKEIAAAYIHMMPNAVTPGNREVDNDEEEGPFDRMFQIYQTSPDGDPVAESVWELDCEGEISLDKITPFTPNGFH
T3 sequence (P21554 whole entry): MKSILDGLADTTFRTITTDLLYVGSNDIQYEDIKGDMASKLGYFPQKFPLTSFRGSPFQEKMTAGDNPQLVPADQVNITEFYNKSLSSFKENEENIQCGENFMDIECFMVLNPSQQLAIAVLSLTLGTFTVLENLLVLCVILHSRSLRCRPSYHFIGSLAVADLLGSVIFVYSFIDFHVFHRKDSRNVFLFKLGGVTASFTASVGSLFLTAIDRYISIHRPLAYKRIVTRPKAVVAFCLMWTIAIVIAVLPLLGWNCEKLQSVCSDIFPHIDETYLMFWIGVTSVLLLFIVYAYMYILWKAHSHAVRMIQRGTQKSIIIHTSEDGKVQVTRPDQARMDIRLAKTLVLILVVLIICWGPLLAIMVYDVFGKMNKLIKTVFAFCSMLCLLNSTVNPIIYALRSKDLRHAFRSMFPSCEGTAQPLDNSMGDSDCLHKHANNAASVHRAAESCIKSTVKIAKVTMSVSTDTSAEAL
T6 sequence (P25105 whole entry): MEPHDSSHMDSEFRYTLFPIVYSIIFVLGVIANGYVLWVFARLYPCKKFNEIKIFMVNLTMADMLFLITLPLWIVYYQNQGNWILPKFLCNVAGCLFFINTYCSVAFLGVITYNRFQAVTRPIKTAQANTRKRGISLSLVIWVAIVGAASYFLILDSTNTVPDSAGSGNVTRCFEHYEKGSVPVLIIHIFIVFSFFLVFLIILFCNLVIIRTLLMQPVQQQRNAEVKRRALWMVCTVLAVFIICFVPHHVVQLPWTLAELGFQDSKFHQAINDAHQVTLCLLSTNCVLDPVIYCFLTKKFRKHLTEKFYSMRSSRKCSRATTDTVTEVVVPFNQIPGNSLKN
T2 sequence (P41597 whole entry): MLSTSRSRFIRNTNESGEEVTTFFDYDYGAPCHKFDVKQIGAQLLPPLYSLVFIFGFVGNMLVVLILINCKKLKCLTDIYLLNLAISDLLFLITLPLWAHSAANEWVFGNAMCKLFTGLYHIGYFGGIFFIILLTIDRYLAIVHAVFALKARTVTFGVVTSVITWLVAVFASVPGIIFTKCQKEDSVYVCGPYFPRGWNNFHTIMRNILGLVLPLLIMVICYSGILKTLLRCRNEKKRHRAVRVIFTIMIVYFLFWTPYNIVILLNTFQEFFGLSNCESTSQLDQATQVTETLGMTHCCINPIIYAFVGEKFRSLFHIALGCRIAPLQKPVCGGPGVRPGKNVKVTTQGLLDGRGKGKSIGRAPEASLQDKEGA

O=C(CCc1ccc2n1[B-](F)(F)[N+]1=C(c3ccc[nH]3)C=CC1=C2)NCc1ccc(C(=O)NCCOCCC(=O)N[C@@H]2CC[C@@]3(O)[C@H]4Cc5ccc(O)c6c5[C@@]3(CCN4CC3CC3)[C@H]2O6)cc1 [Naltrexone-3-NB590]
NanoBRET Fold Response ([1]; SMO, tracer 0.1μM): 0.58 | NanoBRET Fold Response ([1]; SMO, tracer 1μM): 0.55 | NanoBRET Fold Response ([2]; CCR2, tracer 0.1μM): 1.12 | NanoBRET Fold Response ([2]; CCR2, tracer 1μM): 0.70 | NanoBRET Fold Response ([3]; CNR1, tracer 0.1μM): 0.96 | NanoBRET Fold Response ([3]; CNR1, tracer 1μM): 0.95 | NanoBRET Fold Response ([4]; RXFP3, tracer 0.1μM): 0.98 | NanoBRET Fold Response ([4]; RXFP3, tracer 1μM): 1.05 | NanoBRET Fold Response ([5]; SSTR1, tracer 0.1μM): 1.06 | NanoBRET Fold Response ([5]; SSTR1, tracer 1μM): 0.96 | NanoBRET Fold Response ([6]; PTAFR, tracer 0.1μM): 1.24 | NanoBRET Fold Response ([6]; PTAFR, tracer 1μM): 0.78 | NanoBRET Fold Response ([7]; PTGDR2, tracer 0.1μM): 0.98 | NanoBRET Fold Response ([7]; PTGDR2, tracer 1μM): 1.00 | NanoBRET Fold Response ([8]; HTR1D, tracer 0.1μM): 0.53 | NanoBRET Fold Response ([8]; HTR1D, tracer 1μM): 0.94 | NanoBRET Fold Response ([9]; DRD5, tracer 0.1μM): 1.25 | NanoBRET Fold Response ([9]; DRD5, tracer 1μM): 1.07

COc1ccccc1N1CCN(CCCCN2C(=O)c3ccc(CNC(=O)CCOCCNC(=O)c4ccc(CNC(=O)CCc5ccc6n5[B-](F)(F)[N+]5=C(c7ccc[nH]7)C=CC5=C6)cc4)cc3C2=O)CC1 [NAN-190-3-NB590]
NanoBRET Fold Response ([1]; SMO, tracer 0.1μM): 0.88 | NanoBRET Fold Response ([1]; SMO, tracer 1μM): 0.97 | NanoBRET Fold Response ([2]; CCR2, tracer 0.1μM): 0.82 | NanoBRET Fold Response ([2]; CCR2, tracer 1μM): 0.94 | NanoBRET Fold Response ([3]; CNR1, tracer 0.1μM): 1.10 | NanoBRET Fold Response ([3]; CNR1, tracer 1μM): 1.01 | NanoBRET Fold Response ([4]; RXFP3, tracer 0.1μM): 1.08 | NanoBRET Fold Response ([4]; RXFP3, tracer 1μM): 0.95 | NanoBRET Fold Response ([5]; SSTR1, tracer 0.1μM): 1.03 | NanoBRET Fold Response ([5]; SSTR1, tracer 1μM): 1.12 | NanoBRET Fold Response ([6]; PTAFR, tracer 0.1μM): 1.05 | NanoBRET Fold Response ([6]; PTAFR, tracer 1μM): 1.30 | NanoBRET Fold Response ([7]; PTGDR2, tracer 0.1μM): 0.87 | NanoBRET Fold Response ([7]; PTGDR2, tracer 1μM): 0.85 | NanoBRET Fold Response ([8]; HTR1D, tracer 0.1μM): 1.11 | NanoBRET Fold Response ([8]; HTR1D, tracer 1μM): 1.70 | NanoBRET Fold Response ([9]; DRD5, tracer 0.1μM): 1.05 | NanoBRET Fold Response ([9]; DRD5, tracer 1μM): 1.42

Cc1cc2c(s1)Nc1ccccc1N=C2N1CCN(CCCNC(=O)CCOCCOCCOCCOCCNC(=O)CCc2ccc3n2[B-](F)(F)[N+]2=C(c4ccc[nH]4)C=CC2=C3)CC1 [Olanzapine-a-2-NB590]
NanoBRET Fold Response ([1]; SMO, tracer 0.1μM): 1.12 | NanoBRET Fold Response ([1]; SMO, tracer 1μM): 0.82 | NanoBRET Fold Response ([2]; CCR2, tracer 0.1μM): 1.00 | NanoBRET Fold Response ([2]; CCR2, tracer 1μM): 0.59 | NanoBRET Fold Response ([3]; CNR1, tracer 0.1μM): 0.99 | NanoBRET Fold Response ([3]; CNR1, tracer 1μM): 1.05 | NanoBRET Fold Response ([4]; RXFP3, tracer 0.1μM): 0.97 | NanoBRET Fold Response ([4]; RXFP3, tracer 1μM): 1.11 | NanoBRET Fold Response ([5]; SSTR1, tracer 0.1μM): 1.08 | NanoBRET Fold Response ([5]; SSTR1, tracer 1μM): 1.16 | NanoBRET Fold Response ([6]; PTAFR, tracer 0.1μM): 1.00 | NanoBRET Fold Response ([6]; PTAFR, tracer 1μM): 0.99 | NanoBRET Fold Response ([7]; PTGDR2, tracer 0.1μM): 0.97 | NanoBRET Fold Response ([7]; PTGDR2, tracer 1μM): 0.96 | NanoBRET Fold Response ([8]; HTR1D, tracer 0.1μM): 1.03 | NanoBRET Fold Response ([8]; HTR1D, tracer 1μM): 1.29 | NanoBRET Fold Response ([9]; DRD5, tracer 0.1μM): 1.20 | NanoBRET Fold Response ([9]; DRD5, tracer 1μM): 2.53

CCCn1c(=O)c2[nH]c(-c3ccc(OCC(=O)NCCNC(=O)CCOCCNC(=O)c4ccc(CNC(=O)CCc5ccc6n5[B-](F)(F)[N+]5=C(c7ccc[nH]7)C=CC5=C6)cc4)cc3)nc2n(CCC)c1=O [XAC-3-NB590]
NanoBRET Fold Response ([1]; SMO, tracer 0.1μM): 1.01 | NanoBRET Fold Response ([1]; SMO, tracer 1μM): 1.05 | NanoBRET Fold Response ([2]; CCR2, tracer 0.1μM): 1.08 | NanoBRET Fold Response ([2]; CCR2, tracer 1μM): 1.61 | NanoBRET Fold Response ([3]; CNR1, tracer 0.1μM): 1.01 | NanoBRET Fold Response ([3]; CNR1, tracer 1μM): 1.00 | NanoBRET Fold Response ([4]; RXFP3, tracer 0.1μM): 0.95 | NanoBRET Fold Response ([4]; RXFP3, tracer 1μM): 0.92 | NanoBRET Fold Response ([5]; SSTR1, tracer 0.1μM): 0.98 | NanoBRET Fold Response ([5]; SSTR1, tracer 1μM): 1.05 | NanoBRET Fold Response ([6]; PTAFR, tracer 0.1μM): 0.90 | NanoBRET Fold Response ([6]; PTAFR, tracer 1μM): 1.15 | NanoBRET Fold Response ([7]; PTGDR2, tracer 0.1μM): 1.00 | NanoBRET Fold Response ([7]; PTGDR2, tracer 1μM): 1.06 | NanoBRET Fold Response ([8]; HTR1D, tracer 0.1μM): 0.47 | NanoBRET Fold Response ([8]; HTR1D, tracer 1μM): 0.65 | NanoBRET Fold Response ([9]; DRD5, tracer 0.1μM): 0.99 | NanoBRET Fold Response ([9]; DRD5, tracer 1μM): 1.00

COc1ccc2c(n1)c(CCNC(C)=O)cn2CCNC(=O)CCc1ccc2n1[B-](F)(F)[N+]1=C(c3ccc[nH]3)C=CC1=C2 [Azamelatonin-1-NB590]
NanoBRET Fold Response ([1]; 0.1μM tracer): 0.82 | NanoBRET Fold Response ([1]; 1μM tracer): 1.37 | NanoBRET Fold Response ([2]; 0.1μM tracer): 1.06 | NanoBRET Fold Response ([2]; 1μM tracer): 0.97 | NanoBRET Fold Response ([3]; 0.1μM tracer): 1.01 | NanoBRET Fold Response ([3]; 1μM tracer): 0.95 | NanoBRET Fold Response ([4]; 0.1μM tracer): 1.07 | NanoBRET Fold Response ([4]; 1μM tracer): 1.11 | NanoBRET Fold Response ([5]; 0.1μM tracer): 1.08 | NanoBRET Fold Response ([5]; 1μM tracer): 1.03 | NanoBRET Fold Response ([6]; 0.1μM tracer): 1.05 | NanoBRET Fold Response ([6]; 1μM tracer): 1.05 | NanoBRET Fold Response ([7]; 0.1μM tracer): 1.08 | NanoBRET Fold Response ([7]; 1μM tracer): 1.09 | NanoBRET Fold Response ([8]; 0.1μM tracer): 0.68 | NanoBRET Fold Response ([8]; 1μM tracer): 0.68 | NanoBRET Fold Response ([9]; 0.1μM tracer): 0.97 | NanoBRET Fold Response ([9]; 1μM tracer): 0.96

From publication PMC8151276, “An Integrated Approach toward NanoBRET Tracers for Analysis of GPCR Ligand Engagement” (Molecules, 2021)
